These results are taken from patent publication US10792300B2, “Dendritic cell immune receptor activator, method for activating dendritic cell immune receptor, osteoclast formation inhibitor, method for inhibiting osteoclast formation, dendritic cell differentiation/proliferation inhibitor, method for inhibiting dendritic cell differentiation/proliferation, …” (TOKYO UNIVERSITY OF SCIENCE FOUNDATION, priority 2014, dated 2020).

The test system of assay [1] is DCIR-Fc. The experiment in a line: Glycan microarray with evanescent-field fluorescence-assisted detection: binding of DCIR-Fc to glycan probes. Further details: species or system murine. Particulars: for binding of mutant DCIR-Fc (CRD mutants) to the glycan: glycan microarray; for Ca2+ and CRD dependency of DCIR-Fc binding: with or without EDTA, CRD mutants. The source says: (§1) Murine DCIR cDNA, covering the extracellular domain (EC) from 70 to 238 at the amino acid level, was subcloned into pFUSE-hIgG2-Fc2 vector (Invitrogen) at Bgl II site. cDNA coding the extracellular domain was generated with a primer set; sense 5′-[…]-3′ (sequence No. 11) and anti-sense 5′-[…]-3′ (sequence No. 12). Site-directed mutations of the CRD domain, in which glutamic acid and serine were replaced to alanine, were established by KOD-Plus-Mutagenesis Kit (TOYOBO). The following primer set was used for the mutagenesis: E197A sense 5′-[…]-3′(sequence No. 13), anti-sense 5′-[…]-3′(sequence No. 14); S199A sense 5′-[…]-3′(sequence No. 15), anti-sense 5′-[…]-3′ (sequence No. 16); E197A/S199A sense 5′-[…]-3′ (sequence No. 17), anti-sense 5′-[…]-3′(sequence No. 18).
(§2) The plasmids were transferred into HEK293T cells by Lipofectamine LTX (Invitrogen), and the cells were incubated in Opti-MEM (Invitrogen) for 15 days and the medium was changed every 3 days. The Fc-chimeric proteins were purified from collected supernatant by affinity chromatography on Protein A-Sepharose (GE Healthcare UK)
(§3) The glycan-protein interaction was detected in a glycan microarray with an evanescent-field fluorescence-assisted detection system. Briefly, glycan probes, including glycoproteins and glycoside-polyacrylamide (PAA), were immobilized on microarray-grade epoxy-activated glass slides (Schott AG) in triplicate spots using a noncontact microarray printing robot, MicroSys 4000 (Genomic Solutions). The glass slides were incubated at 25° C. for 3 hours and washed with a reaction buffer consisting of 25 mM Tris HCl (pH 7.4) containing 0.8% NaCl, 1% (v/v) Triton-X, 1 mM MnCl2, and 1 mM CaCl2 to remove […], followed by blocking in TBS (25 mM Tris-HCl (pH 7.4) with 0.8% NaCl and 1% BSA) at 20° C. for 1 hour. A protein complex of DCIR-Fc, mutant DCIR-Fc, or Fc with Cy3-labelled anti-human Fc antibodies was formed in a reaction buffer at RT by 20 minutes kept in the dark.
(§4) The protein complex was applied to a glass slide at 100 μl per chamber, and was incubated at 20° C. for 3 hours. Without washing, the binding was detected with an evanescent-field activated fluorescence scanner, SC-Profiler (GP Bioscience), and the data was analyzed by the Array Pro analyzer Ver. 4.5 (Media Cybernetics, Inc.) Subtracted raw intensity from background intensity is net intensity, which is presented as the average±s.d. of triplicate spots.

Assay [2] addresses T1, DCIR-Fc (Mus musculus, UniProt Q9QZ15).
T1 construct: covering the extracellular domain (EC) from 70 to 238 at the amino acid level; made in house; host or cells: HEK293T cells
T1 sequence (Q9QZ15 70-238): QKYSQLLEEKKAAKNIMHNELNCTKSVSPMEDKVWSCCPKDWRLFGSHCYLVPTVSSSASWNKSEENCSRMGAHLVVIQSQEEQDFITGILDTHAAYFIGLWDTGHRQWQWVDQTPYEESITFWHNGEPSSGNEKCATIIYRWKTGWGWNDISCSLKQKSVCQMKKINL
The description is as above. The following applies: glycan microarray, DCIR-Fc. Details: species or system murine.
Excerpt: as §1, §2, §3, §4

Assay [3] deals with Dcir−/− BMMs. The experiment in a line: Western blotting of M-CSF- and RANKL-mediated signals, Dcir−/− BMMs. Format: cell-based, mouse. Particulars: FIG. 49: Dcir−/− BMMs pre-treated with NA2 1 μg/ml for 6 hours. As for the experimental part: (§5) For western blotting of M-CSF- and RANKL-mediated signals, BMMs were re-plated in a 12-well plate at 250,000 cells per well in the presence of 5 ng/ml of M-CSF. 24 hours after the culture, the BMMs were left in a serum-free medium without M-CSF for 6 hours before stimulation. The cells were activated with 20 ng/ml of M-CSF or 100 ng/ml of RANKL for predetermined periods. […]
(§6) Wild-type and Dcir−/− BMMs were induced to differentiate osteoclasts in the presence of M-CSF and RANKL. […] The number of osteoclasts was determined by TRAP staining. […] Cell lysates were analyzed by western blotting to detect the phosphorylation levels of signal components.

The test system of assay [4] is Flt3L-induced dendritic cells (DCs). In words: Pro-inflammatory cytokine production by LPS-activated Flt3L-induced dendritic cells (ELISA). The class given is cell-based, mouse. The following applies: 1 μg/ml NA2, 24 hours, versus without NA2. Here is the method:
Flt3L-induced dendritic cells (DCs) were prepared by the following process. Bone marrow cells were isolated from femurs of wild-type mice. Red blood cells were destroyed in a hemolysis buffer (consisting of 140 mM NH4Cl and 17 mM Tris-HCl, pH 7.2) for 10 minutes on ice. The cells were seeded at 1 million cells per well in 24-well plates in the presence of 100 ng/ml of recombinant human Flt3L in a medium containing 10% FBS, antibiotic mixtures, essential amino acids and 2-mercaptoethanol. At day 4, 100 ng/ml of recombinant human Flt3L (Milteny) was added in each well and further cultured for additional 4 days. At day 8, the cells were harvested and re-seeded at 500,000 cells per well in 96-well plates.
The DCs thus obtained were activated with agonistic reagents (LPS) with or without 1 μg/ml of a NA2 for 24 hours. The supernatants were collected and the amounts of pro-inflammatory cytokines (IL-6 and p40) were determined by ELISA. As a result, the amount of pro-inflammatory cytokines were smaller when the DCs were stimulated by LPS in the presence of a NA2 than without the same (FIG. 50). In FIG. 50, the left-side two bars represent the amounts of pro-inflammatory cytokines without LPS stimulation, and the right-side two bars represent the amounts of pro-inflammatory cytokines with LPS stimulation, where the black bars represent the cases in the presence of a NA2.
For orientation: In an ELISA, binding on a coated surface is turned into a signal by an enzyme label.

In assay [5] the test system is wild-type BMMs. The experiment in a line: Osteoclast formation by TRAP staining, wild-type BMMs with M-CSF and RANKL. Format: cell-based, mouse. As for the experimental part:
To form M-CSF-dependent bone marrow-derived macrophages, BM cells were isolated by flushing the bone marrow cavity of femurs with α-minimal essential medium (α-MEM) (Gibco, trade name, Life Technologies), supplemented with penicillin (100 units/ml), streptomycin (100 μg/ml) and 10% heat-inactivated fetal bovine serum. Red blood cells were destroyed in a hemolysis buffer (consisting of 140 mM NH4Cl and 17 mM Tris-HCl, pH 7.2) for 10 minutes on ice, and the treated cells were pre-incubated in a 100 mm dish for 1 hour. The non-adherent cells (hematopoietic cells) were harvested and seeded at 50,000 cells per well in 96-well plates in the presence of 20 ng/ml of recombinant human M-CSF (R&D Systems) for 2 days. The cells proliferated in response to M-CSF were defined as BMMs. […]
Adherent cells were fixed in 10% formalin for 3 minutes, followed by further fixation in a fixative buffer consisting of 50% ethanol and 50% acetone for 1 minute. […] TRAP-positive cells with more than 3 or 10 nuclei were counted as multinucleated osteoclasts.
Wild-type and Dcir−/− BMMs were induced to differentiate osteoclasts in the presence of M-CSF and RANKL. […] The number of osteoclasts was determined by TRAP staining. […] Cell lysates were analyzed by western blotting to detect the phosphorylation levels of signal components. […]

The subject of assay [6] is wild-type BMMs. In words: Western blotting of M-CSF- and RANKL-mediated signals, wild-type BMMs. Format: cell-based, mouse. Particulars: wild-type BMMs pre-treated with NA2. As for the experimental part:
as §5, §6
(In western blotting, separated proteins are transferred to a membrane and probed.)

Assay [7] concerns primary murine osteoblasts. The experiment in a line: Effect of IFN-γ on osteoblast formation (alizarin red staining, osteogenic gene expression). Format: cell-based. The following applies: exogenous addition, dose-dependent. Here is the method:
Calvarial cells were prepared by sequential digestion followed by a standard method. Briefly, calvavria from 1 to 2-day old neonates were surgically isolated and adherent mesenchymal tissues were trimmed. The neonatal calvaria underwent a first digestion with a degrading solution containing 0.1% collagenase (Wako Pure Chemical Industries) and 0.1% dispase (Roche Diagnostics Japan) for 10 minutes at 37° C. with agitation. The solution was discarded to remove debris, and the remaining calvaria were further digested by the same degrading solution for 1 hour at 37° C. The cells isolated from the serial digestions were suspended in an a-MEM containing 10% FCS, penicillin (100 units/ml) and streptomycin (100 μg/ml), and plated at the concentration of 200,000 cells/well in 12-well plates. Two days after the culture, the cells were incubated in an osteogenic medium (α-MEM supplemented with 10% FBS, 50 μg/ml ascorbic acid (Sigma-Aldrich), 10 mM β-glycerophosphate (Calbiochem) and antibiotics) for 14 days or 21 days, with the medium replaced every 3 days for the entire duration.
Murine osteoblasts were cultured and differentiated according to the protocol as mentioned above. […]
The mineralization formation of osteoblastic cells was detected by the von Kossa method and staining with alizarin red S (sodium alizarin sulphonate). […]

Turning to “asialo-transferrin: glycoprotein probe on the glycan microarray; transferrin without sialic acid”, in assay [1], the “binding of mutant DCIR-Fc (CRD mutants) to the glycan” value is “no binding”; the “Ca2+ and CRD dependency of DCIR-Fc binding” value (shortened to “Ca2+ and CRD dependency”) was “Ca^2+-dependent”. The “binding of DCIR-Fc to the glycan” value in assay [2] is “bound”.
On to asialo-biantennary N-glycan [NA2], for which the “MAPKs and IκBα upon M-CSF and RANKL stimuli” value in assay [3] was “no effect”. Moreover, in assay [4], the “amount of pro-inflammatory cytokine IL-6” value is reported as “smaller” and the “amount of pro-inflammatory cytokine p40” value is listed as “smaller”. Moreover, the “osteoclast formation in wild-type BMMs” value in assay [5] is given as “significant decrease”. For the same molecule, in assay [6], the “Akt phosphorylation in response to M-CSF and RANKL” value was “decrease”. Also, the “Ca2+ and CRD dependency” value in assay [1] was “Ca^2+ and CRD were required”. Moreover, in assay [2], the “binding of DCIR-Fc to the glycan” value is on record as “bound strongly”.
Take heparin: in assay [1], the “binding of mutant DCIR-Fc (CRD mutants) to the glycan” value is recorded as “remained bound”; the “Ca2+ and CRD dependency” value was “Ca^2+-dependent”. In assay [2], the “binding of DCIR-Fc to the glycan” value is “bound”.

B1: IFN-γ: recombinant murine IFN-γ (PeproTech) (protein, UniProt P01580 23-155, looked up)
Interferon gamma: HGTVIESLESLNNYFNSSGIDVEEKSLFLDIWRNWQKDGDMKILQSQIISFYLRLFEVLKDNQAISNNISVIESHLITTFFSNSKAKKDAFMSIAKFEVNNPQVQRQAFNELIRVVHQLLPESSLRKRKRSRC
As for B1, the “alizarin red staining (ability of osteoblasts to mineralize)” value in assay [7] is “augmented”. Further, in assay [7] (day 14 culture), the “expression of osteogenic genes” value is reported as “augmented”.
